Among the data in patent publication US7355069B2, “Ortho-substituted benzoic acid derivatives for the treatment of insulin resistance” (AstraZeneca AB, priority 2002, dated 2008) are EC50 values, retold here.

By EC50 is commonly meant the concentration giving half of the maximal effect. Higher therefore signals lower potency in that assay.

The target of the test is T1, human PPAR alpha (Homo sapiens, UniProt Q07869).
T1 construct: expressed in transfected cells; host or cells: U2-OS (human osteogenic sarcoma), transient electroporation with pSG5-based expression vector
T1 sequence (Q07869 239-466 limits assumed): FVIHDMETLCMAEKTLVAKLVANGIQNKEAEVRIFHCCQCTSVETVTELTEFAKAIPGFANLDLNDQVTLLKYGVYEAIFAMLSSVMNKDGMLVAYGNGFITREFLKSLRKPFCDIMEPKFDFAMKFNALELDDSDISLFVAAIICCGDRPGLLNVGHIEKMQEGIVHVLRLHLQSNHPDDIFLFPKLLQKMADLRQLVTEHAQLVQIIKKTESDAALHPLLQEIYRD
The experiment in a line: GAL4-PPAR ligand binding domain luciferase reporter transactivation assay in transiently transfected U2-OS cells. The format is cell-based. As to conditions: about 24 hours exposure, concentration giving 50% of maximal activation by reference compound (ETYA). How it is done:
Compounds were dissolved in DMSO to obtain 16 mM stock solutions. Before assays, stock solutions were further diluted in DMSO and culture media.
U2-OS, (Osteogenic sarcoma, Human) was purchased from ATCC, USA. Cells were expanded and refrozen in batches from passage number six. Cells were cultured in Dulbecco's modified Eagle medium (DMEM) with 25 mM glucose, 2 mM glutamine or 4 mM L-alanyl-L-glutamine, 10% fetal calf serum, at 5% CO2. Phosphate buffered saline (PBS) without addition of calcium or magnesium was used. All cell culture reagents were from Gibco (USA) and 96-well cell culture plates were purchased from Wallach.
Standard recombinant DNA techniques were carried out as described by Ausubel (7). The Luciferase reporter vector, pGL5UAS (clone consists of five copies of the GAL4 DNA binding sequence, 5′-[…]-3′, cloned into the SacI/XhoI sites of pGL3-Promoter (Promega). The SacI/XhoI fragment carrying the UAS sites was constructed using annealed overlapping oligonucleotides.
Expression vectors used are based upon pSG5 (Stratagene). All vectors contain an EcoRI/NheI fragment encoding the DNA binding domain of GAL4 (encoding amino acid positions 1-145 of database accession number P04386) followed by an in-frame fusion to a fragment encoding the nuclear localisation sequence from T antigen of Polyoma Virus. The nuclear localisation sequence was constructed using annealed overlapping oligonucleotides creating NheI/KpnI sticky ends (5′-[…]-3′). The ligand binding domains from human and mouse PPARα and human and mouse PPARγ were PCR amplified as KpnI/BamHI fragments and cloned in frame to the GAL4 DNA binding domain and the nuclear localisation sequence. The sequence of all plasmid constructs used were confirmed by sequencing.
Frozen stocks of cells from passage number six were thawed and expanded to passage number eight before transfections. Confluent cells were trypsinised, washed and pelleted by centrifugation at 270×g for 2 minutes. The cell pellet was resuspended in cold PBS to a cell concentration of about 18×10^6 cells/ml. After addition of DNA, the cell suspension was incubated on ice for approximately 5 minutes before electroporation at 230 V, 960 μF in Biorad's Gene Pulser™ in 0.5 ml batches. A total of 50 μg DNA was added to each batch of 0.5 ml cells, including 2.5 μg expression vector, 25 μg reporter vector and 22.5 μg unspecific DNA (pBluescript, Stratagene).
After electroporation, cells were diluted to a concentration of 320'000 cells/ml in DMEM without phenol red, and approximately 25'000 cells/well were seeded in 96-well plates. In order to allow cells to recover, seeded plates were incubated at 37° C. for 3-4 hours before addition of test compounds. […]
In the case of `CCN(Cc1ccc(C(F)(F)F)cc1)C(=O)Cc1ccc(SCc2ccccc2C(=O)O)cc1` [Example 11, 2-({[4-(2-{Ethyl[4-(trifluoromethyl)benzyl]amino}-2-oxoethyl)phenyl]thio}methyl)benzoic acid], it took 26 nM to reach a half-maximal effect (EC50).

Take `CCN(Cc1ccc(Cl)cc1)C(=O)Cc1ccc(SCc2ccccc2C(=O)O)cc1` [Example 15, 2-{[(4-{2-[(4-Chlorobenzyl)(ethyl)amino]-2-oxoethyl}phenyl)thio]methyl}benzoic acid]: it took 27 nM to reach a half-maximal effect (EC50).

As for `CCCCCCCN(Cc1ccc(F)cc1F)C(=O)CCc1ccc(OCc2ccccc2C(=O)O)cc1` [Example 5, 2-[(4-{3-[(2,4-Difluorobenzyl)(heptyl)amino]-3-oxopropyl}phenoxy)methyl]benzoic acid], it took 163 nM to reach a half-maximal effect (EC50).

Compound `CCCN(Cc1ccc(F)cc1F)C(=O)CCc1ccc(OCc2ccccc2C(=O)O)cc1` [Example 10, 2-[(4-{3-[(2,4-difluorobenzyl)(propyl)amino]-3-oxopropyl}phenoxy)methyl]benzoic acid] came in with a concentration for a half-maximal effect (EC50) of 168 nM.
